Assay results: a compilation of properties of binary mixtures

Experiment: xn = mol fraction of the nth substance listed
Settings: 101 kPa

CO + CCCC[n+]1ccc(C)cc1.F[B-](F)(F)F
x1 = 1
Settings | viscosity [mPa·s]
313.15 K | 0.436
323.15 K | 0.383

CCCC[n+]1ccc(C)cc1.F[B-](F)(F)F + CO
viscosity [mPa·s]
Settings | 298.15 K | 313.15 K | 323.15 K
x1 = 0.0151 | 0.621 | 0.507 | –
x2 = 0 | – | 81 | 50.2
x2 = 0.4287 | – | – | 9.2
x2 = 0.5246 | – | 7.58 | 5.92
x2 = 0.5678 | 9.3 | 6.31 | 4.95
x2 = 0.718 | 4.19 | – | 2.5
x2 = 0.8313 | 2.02 | 1.54 | –
x2 = 0.8803 | 1.46 | – | –
x2 = 0.9154 | 1.11 | 0.877 | 0.763
x2 = 0.9452 | 0.868 | 0.696 | 0.611
x2 = 0.9671 | – | 0.586 | 0.519
x2 = 0.9775 | 0.669 | 0.544 | 0.476
